# Laboratory results reported in patent US10766914B2, “DNA alkylating agents” (OBI PHARMA, INC., priority 2015, dated 2020).
# How the values were obtained:
# [1] = Pharmacokinetics in CD-1 mice following a single intraperitoneal dose (parent and TH2660); details: mouse, in vivo, ip, parent compound
# Experimental: The pharmacokinetics of TH2873, TH2883, TH2888, TH2890, TH2901 and TH2926 were determined in CD-1 mice following a single intraperitoneal dose.
# The pharmacokinetics of TH2660, the active metabolite, following a single intraperitoneal dose of TH2873, TH2883, TH2888, TH2890, TH2901 and TH2926 are shown below.
# [2] = tested on: H460 cells; assay: Proliferation assay in H460 cells (2 hr exposure, AlamarBlue); format: cell-based, human; details: Homo sapiens, NCI-H460, 2 hrs exposure, wash, 70 hrs growth, read-out: IC 50 in proliferation assay in H460 cells
# Experimental: In vitro proliferation data on the H460 […] human tumor cell line is reported above in the compound table.
# Specifically, exponentially growing cells were seeded at a density of 4×10^3 cells per well in a 96 well plate and incubated at 37° C. in 5% CO2, 95% air and 100% relative humidity for 24 hours prior to addition of test compounds. Compounds were solubilized in 100% DMSO at 200 times the desired final test concentration. At the time of drug addition, compounds were further diluted to 4 times the desired final concentration with complete medium. Aliquots of 50 μl of compound at specified concentrations were added to microtiter wells already containing 150 μl of medium, resulting in the final drug concentration reported. After drug addition, the plates were incubated for an additional 2 hours at 37° C., 5% CO2, 95% air, and 100% relative humidity, then the drug was washed off and fresh medium was added and the plates were incubated for addition 70 hrs at 37° C., 5% CO2, 95% air and 100% relative humidity. At the end of this incubation, the viable cells were quantified using the AlamarBlue assay. The drug concentration resulting in growth inhibition of 50% (IC50) was calculated using Prism software (Irvine, Calif.), and the results were listed in the table.
# [3] = Example 4-D body weight change and lethal toxicity, A549 xenograft study; format: in vivo, female nude mice (nu/nu)
# Experimental: Cells were mixed with Matrigel (50% with exception for 30% in the H460) and 0.2 ml per mouse were subcutaneously implanted to the flank area of the animals. When tumor size reached 100-150 250 mm3, mice were randomized into experimental or vehicle groups with 10 mice/group and treatment was started (Day 1). The tested compounds were formulated in 5% DMSO in D5W. The regimens employed in the examples include IP, QD×5/wk (5 days on, 2 days off) as one cycle, for a total of 2 cycles; IP, once; IP, weekly for total 3 weeks; and IV, weekly for 3 weeks. Tumor growth and body weight were measured twice a week. Tumor volume was calculated as (length×width2)/2. Drug efficacy was assessed as Tumor Growth Inhibition (TGI) and Tumor Growth Delay (TGD). TGI was defined as (1−ΔT/ΔC)×100, where ΔT/ΔC presented the ratio of the change in mean (or median, if variation within the group was relatively large) tumor volume of the treated group and of the control group. TGD was calculated as the extra days for the treated tumor to reach 500 mm3 or 1000 mm3 as compared to the control group. Animals were culled when individual tumor size reached over 2000 mm3 or mean tumor volume exceeded 1000 mm3 in the group. Data are expressed as the mean±SEM. One-way analysis of variance with Dunnett post comparison test (GraphPad Prism 4) or two-tailed student's t-test were used for analysis. A P level <0.05 was considered statistically significant.
# The compounds were tested in another A549 model. The compounds were dosed as follows. Daily IP dosing: 5 doses then 2 days off then 5 more doses starting at 100 mm^3 tumors on day 1 (10 animals per group average tumor volume). The antitumor effects and the safety of administration are graphically illustrated below.
SMILES,IC50 [2] [nM],other results
O=[N+]([O-])c1ccc(COP(=O)(N2CC2)N2CC2)cc1Oc1ccc2ncsc2c1 [Compound 2901],3,AUC [1]: 2580 ng·h/mL; Cmax [1]: 5120 ng/mL; Tmax [1]: 5 min; half-life [1]: 12.1 min
CC(OP(=O)(N1CC1)N1CC1)c1ccc([N+](=O)[O-])c(Oc2ccc(NS(=O)(=O)CCl)cc2)c1 (stereo not shown) [Compound 2926],20,AUC [1]: 9650 ng·h/mL; Cmax [1]: 8340 ng/mL; Tmax [1]: 15 min; half-life [1]: 34.2 min
Cc1nc2ccc(Oc3cc(COP(=O)(N4CC4)N4CC4)ccc3[N+](=O)[O-])cc2s1 [Compound 2931],1,"Max. BW loss % ([3]; 5 mg/kg IP QD × 5): 25.0%; Lethal Tox ([3]; 5 mg/kg IP QD × 5, 10 animals per group): 10"
CC(OP(=O)(N1CC1)N1CC1)c1ccc([N+](=O)[O-])c(Oc2nccs2)c1 (stereo not shown) [Compound 2944],> 5000,
CC(OP(=O)(N1CC1)N1CC1)c1ccc([N+](=O)[O-])c(Oc2cccc3cnccc23)c1 (stereo not shown) [Compound 2945],50,
CS(=O)(=O)Nc1ccc(Oc2cc(COP(=O)(N3CC3)N3CC3)ccc2[N+](=O)[O-])cc1 [Compound 2946],30,
CC(OP(=O)(N1CC1)N1CC1)c1ccc([N+](=O)[O-])c(O/N=C(\C#N)c2ccccc2)c1 (stereo not shown) [Compound 2947],200,
N#C/C(=N\Oc1cc(COP(=O)(N2CC2)N2CC2)ccc1[N+](=O)[O-])c1ccccc1 [Compound 2948],40,
C/C(=N\Oc1cc(COP(=O)(N2CC2)N2CC2)ccc1[N+](=O)[O-])c1ccccc1 [Compound 2949],400,
CC(OP(=O)(N1CC1)N1CC1)c1ccc([N+](=O)[O-])c(Oc2cccc(S(C)(=O)=O)c2)c1 (stereo not shown) [Compound 2950],40,
CS(=O)(=O)c1cccc(Oc2cc(COP(=O)(N3CC3)N3CC3)ccc2[N+](=O)[O-])c1 [Compound 2951],20,
CC(OP(=O)(N1CC1)N1CC1)c1ccc([N+](=O)[O-])c(Oc2cccc3ccccc23)c1 (stereo not shown) [Compound 2954],100,
CC(OP(=O)(N1CC1)N1CC1)c1ccc([N+](=O)[O-])c(Oc2cnc3ccccc3c2)c1 (stereo not shown) [Compound 2956],4,
CC(OP(=O)(N1CC1)N1CC1)c1ccc([N+](=O)[O-])c(Oc2ccc3cccnc3c2)c1 (stereo not shown) [Compound 2957],40,
O=[N+]([O-])c1ccc(COP(=O)(N2CC2)N2CC2)c(Oc2ccccc2)c1 [Compound 2960],1600,
C/C(=N\Oc1cc(C(C)OP(=O)(N2CC2)N2CC2)ccc1[N+](=O)[O-])c1ccccc1 (stereo not shown) [Compound 2961],2700,
O=[N+]([O-])c1ccc(COP(=O)(N2CC2)N2CC2)cc1Oc1cccc2ccccc12 [Compound 2966],200,
O=[N+]([O-])c1ccc(COP(=O)(N2CC2)N2CC2)cc1Oc1cccc2ncccc12 [Compound 2967],100,
O=[N+]([O-])c1ccc(COP(=O)(N2CC2)N2CC2)cc1Oc1ccc2ccccc2c1 [Compound 2968],4,
O=[N+]([O-])c1ccc(COP(=O)(N2CC2)N2CC2)cc1Oc1cnc2ccccc2c1 [Compound 2969],2,
O=[N+]([O-])c1ccc(COP(=O)(N2CC2)N2CC2)cc1Oc1ccc2cccnc2c1 [Compound 2970],40,
O=[N+]([O-])c1ccc(COP(=O)(N2CC2)N2CC2)cc1Oc1ccc2ncccc2c1 [Compound 2971],3,
CC(OP(=O)(N1CC1)N1CC1)c1ccc([N+](=O)[O-])c(Oc2cccc(C(=O)N3CCOCC3)c2)c1 (stereo not shown) [Compound 2972],10,
O=C(c1cccc(Oc2cc(COP(=O)(N3CC3)N3CC3)ccc2[N+](=O)[O-])c1)N1CCOCC1 [Compound 2973],20,

SMILES,IC50 [2] [nM],other results
CN(C(=O)c1ccc(Oc2cc(COP(=O)(N3CC3)N3CC3)ccc2[N+](=O)[O-])cc1)c1ccccc1 [Compound 2974],1,
CC(OP(=O)(N1CC1)N1CC1)c1ccc([N+](=O)[O-])c(Oc2ccc(C(=O)N(C)c3ccccc3)cc2)c1 (stereo not shown) [Compound 2978],2,
CC(OP(=O)(N1CC1)N1CC1)c1ccc([N+](=O)[O-])c(Oc2ccccc2S(C)(=O)=O)c1 (stereo not shown) [Compound 2980],3000,
CS(=O)(=O)c1ccccc1Oc1cc(COP(=O)(N2CC2)N2CC2)ccc1[N+](=O)[O-] [Compound 2981],3700,
CC(OP(=O)(N1CC1)N1CC1)c1ccc([N+](=O)[O-])c(Oc2cccc(C(=O)N3CCCCC3)c2)c1 (stereo not shown) [Compound 2982],4,
O=C(c1cccc(Oc2cc(COP(=O)(N3CC3)N3CC3)ccc2[N+](=O)[O-])c1)N1CCCCC1 [Compound 2983],4,
CC(OP(=O)(N1CC1)N1CC1)c1ccc([N+](=O)[O-])c(Oc2cccc(C(=O)N3CCCC3)c2)c1 (stereo not shown) [Compound 2984],5,
CCN(CC)C(=O)c1cccc(Oc2cc(C(C)OP(=O)(N3CC3)N3CC3)ccc2[N+](=O)[O-])c1 (stereo not shown) [Compound 2985],4,
CC(OP(=O)(N1CC1)N1CC1)c1ccc([N+](=O)[O-])c(Oc2cccc(-c3ccccc3)c2)c1 (stereo not shown) [Compound 2991],6,
CC(OP(=O)(N1CC1)N1CC1)c1ccc([N+](=O)[O-])c(Oc2cccc(C(=O)N(C)c3ccccc3)c2)c1 (stereo not shown) [Compound 2992],4,
CC(OP(=O)(N1CC1)N1CC1)c1ccc([N+](=O)[O-])c(Oc2cccc(C(=O)N3CCS(=O)(=O)CC3)c2)c1 (stereo not shown) [Compound 2993],20,
CC(OP(=O)(N1CC1)N1CC1)c1ccc([N+](=O)[O-])c(Oc2ccccc2-c2ccccc2)c1 (stereo not shown) [Compound 3028],700,
O=[N+]([O-])c1ccc(COP(=O)(N2CC2)N2CC2)cc1Oc1ccccc1-c1ccccc1 [Compound 3029],600,
Cc1ccc(Oc2cc(C(C)OP(=O)(N3CC3)N3CC3)ccc2[N+](=O)[O-])cc1 (stereo not shown) [Compound 3030],20,
Cc1ccc(Oc2cc(COP(=O)(N3CC3)N3CC3)ccc2[N+](=O)[O-])cc1 [Compound 3031],10,
Cc1ccccc1-c1ccc(Oc2cc(C(C)OP(=O)(N3CC3)N3CC3)ccc2[N+](=O)[O-])cc1 (stereo not shown) [Compound 3032],3,
Cc1ccccc1-c1ccc(Oc2cc(COP(=O)(N3CC3)N3CC3)ccc2[N+](=O)[O-])cc1 [Compound 3033],1,
CC(OP(=O)(N1CC1)N1CC1)c1ccc([N+](=O)[O-])c(Oc2ccc(C(C)(C)C)cc2)c1 (stereo not shown) [Compound 3034],8,
CC(C)(C)c1ccc(Oc2cc(COP(=O)(N3CC3)N3CC3)ccc2[N+](=O)[O-])cc1 [Compound 3035],1,
CC(OP(=O)(N1CC1)N1CC1)c1ccc([N+](=O)[O-])c(Oc2ccc(C(F)(F)F)cc2)c1 (stereo not shown) [Compound 3036],4,
O=[N+]([O-])c1ccc(COP(=O)(N2CC2)N2CC2)cc1Oc1ccc(C(F)(F)F)cc1 [Compound 3037],1,
CC(OP(=O)(N1CC1)N1CC1)c1ccc([N+](=O)[O-])c(Oc2ccc(-c3ccc(Cl)cc3)cc2)c1 (stereo not shown) [Compound 3041],50,
CC(OP(=O)(N1CC1)N1CC1)c1ccc([N+](=O)[O-])c(Oc2ccc(-c3ccc(F)cc3)cc2)c1 (stereo not shown) [Compound 3042],5,
O=[N+]([O-])c1ccc(COP(=O)(N2CC2)N2CC2)cc1Oc1ccc(-c2ccncc2)cc1 [Compound 3050],10,
